Test results taken from patent US8440794B2, “Peptide sequences, their branched form and use thereof for antimicrobial applications” (Universita' Degli Studi di Siena, priority 2008, dated 2013).
In brackets after ≈: the same amount, converted by molar mass. Where a SMILES comes first, the peptide text is derived from it. Bridges are numbered along the chain shown (N, C = ends). Roman numbers before positions name the chains, in order. [ ]: non-standard residue; d: D form. βAla = NCCC(=O)O

Experiments:
[1] = system: LPS from K. pneumoniae ATCC15380; TNF-α secretion by Raw 264.7 macrophages; experiment: Inhibition of LPS-induced TNF-α secretion by Raw 264.7 macrophages, LPS from K. pneumoniae; type: cell-based
Description: (§1) FIG. 3. Inhibition of TNF-α release by neutralization of LPS. A, Raw 264.7 cells were incubated with LPS from P. aeruginosa 20 ng/ml and M33. Triangles indicate incubation with LPS and different concentrations of M33. Squares indicate incubation with M33 only. B, Raw 264.7 cells were incubated with LPS from K. pneumoniae 5 ng/ml and M33. Triangles indicate incubation of macrophages with LPS and different concentrations of M33. Squares indicate incubation of macrophages with M33 only. SD derived by means of three different experiments. 100% indicates the maximum amount of TNF-α produced by macrophages when incubated with LPS without M33. The other percentages indicate the amount of TNF-α produced by macrophages when incubated with LPS and M33, with respect to 100%. Basal levels of TNF-α were negligible. MIC of M33 is indicated by the arrow.
(§2) Then it was examined for inhibiting LPS-induced TNF-α, secretion by Raw 264.7 macrophages.

K pneumoniae FIPP-1 = type: cell-based, Klebsiella pneumoniae; conditions: FIPP-1, 24 h
Description: (§3) M33, […], M35 and M36 MICs were determined against strains of several bacterial species, including Gram-negative pathogens and also Staphylococcus aureus (Table 1). MICs in the micromolar range were observed against several Gram-negatives including Pseudomonas aeruginosa, Acinetobacter baumannii and most Enterobacteriaceae, with the exception of Proteus mirabilis, Serratia marcescens and Burkholderia cepacia. Activity of peptides was retained against MDR strains with various resistance mechanisms (such as extended-spectrum beta-lactamases and carbapenemases), including MDR P. aeruginosa strains from CF patients. Antimicrobial profile of M33, […] and potency were overall similar to those of polymyxin B, although M33, M34, M35 and M36 also appeared to have some activity against S. aureus (Table 1).

K pneumoniae C8-27 = type: cell-based, Klebsiella pneumoniae; conditions: C8-27, 24 h
Description: as §3

K pneumoniae 7086042 = type: cell-based, Klebsiella pneumoniae; conditions: 7086042, 24 h
Description: as §3

[2] = system: LPS from P. aeruginosa serotype 10 ATCC27316; TNF-α secretion by Raw 264.7 macrophages; experiment: Inhibition of LPS-induced TNF-α secretion by Raw 264.7 macrophages, LPS from P. aeruginosa; type: cell-based
Description: as §1, §2

[3] = type: in vivo; conditions: animals treated ip with 100 mg/Kg (not shown)
[4] = system: Burkholderia cepacia ORB-99; type: cell-based; conditions: 24 h
Description: as §3

[5] = system: Pseudomonas aeruginosa ATCC 27853; type: cell-based; conditions: ATCC 27853, 24 h
Description: as §3

[6] = system: Staphylococcus aureus ATCC 29213; type: cell-based; conditions: ATCC 29213, 24 h
Description: as §3

[7] = system: Enterobacter cloacae W03AN0041; type: cell-based; conditions: W03AN0041, 24 h
Description: as §3

[8] = system: Klebsiella pneumoniae ATCC 13833; type: cell-based; conditions: ATCC 13833, 24 h
Description: as §3

[9] = system: Acinetobacter baumannii RUH 134; type: cell-based; conditions: RUH 134, 24 h
Description: as §3

[10] = system: Proteus mirabilis W03VA1017; type: cell-based; conditions: W03VA1017, 24 h
Description: as §3

[11] = system: Serratia marcescens W03BG0003; type: cell-based; conditions: W03BG0003, 24 h
Description: as §3

[12] = system: Enterobacer aerogenes W03BG0067; type: cell-based; conditions: 24 h
Description: as §3

S. aureus 3851 = type: cell-based, Staphylococcus aureus; conditions: 3851, 24 h
Description: as §3

E. coli W03BG0025 = type: cell-based, Escherichia coli; conditions: W03BG0025, 24 h
Description: as §3

[13] = system: P. aeruginosa SC-MDr03-06; type: cell-based, Pseudomonas aeruginosa; conditions: SC-MDr03-06, 24 h
Description: as §3

P. aeruginosa AV65 = type: cell-based, Pseudomonas aeruginosa; conditions: AV65, 24 h
Description: as §3

P. aeruginosa PAO-1 = type: cell-based, Pseudomonas aeruginosa; conditions: PAO-1, 24 h
Description: as §3

[14] = system: P. aeruginosa SC-GMm03-05; type: cell-based, Pseudomonas aeruginosa; conditions: SC-GMm03-05, 24 h
Description: as §3

[15] = system: P. aeruginosa SC-DMr05-04; type: cell-based, Pseudomonas aeruginosa; conditions: SC-DMr05-04, 24 h
Description: as §3

[16] = system: P. aeruginosa SC-VMr04-05; type: cell-based, Pseudomonas aeruginosa; conditions: SC-VMr04-05, 24 h
Description: as §3

[17] = system: P. aeruginosa SC-CNm03-07; type: cell-based, Pseudomonas aeruginosa; conditions: SC-CNm03-07, 24 h
Description: as §3

P. aeruginosa VR-143/97 = type: cell-based, Pseudomonas aeruginosa; conditions: VR-143/97, 24 h
Description: as §3

P. aeruginosa EF-OBG6-1 = type: cell-based, Pseudomonas aeruginosa; conditions: EF-OBG6-1, 24 h
Description: as §3

[18] = system: P. aeruginosa SC-BGr12-02; type: cell-based, Pseudomonas aeruginosa; conditions: SC-BGr12-02, 24 h
Description: as §3

[19] = system: P. aeruginosa SC-MDm03-02; type: cell-based, Pseudomonas aeruginosa; conditions: SC-MDm03-02, 24 h
Description: as §3

In the case of `CC[C@H](C)[C@H](NC(=O)[C@H](CCCCN)NC(=O)[C@@H](N)CCCCN)C(=O)N[C@@H](CCCNC(=N)N)C(=O)N[C@H](C(=O)N[C@@H](CCCNC(=N)N)C(=O)N[C@@H](CC(C)C)C(=O)N[C@@H](CO)C(=O)N[C@@H](C)C(=O)NCCCC[C@H](NC(=O)[C@H](C)NC(=O)[C@H](CO)NC(=O)[C@H](CC(C)C)NC(=O)[C@H](CCCNC(=N)N)NC(=O)[C@@H](NC(=O)[C@H](CCCNC(=N)N)NC(=O)[C@@H](NC(=O)[C@H](CCCCN)NC(=O)[C@@H](N)CCCCN)[C@@H](C)CC)C(C)C)C(=O)NCCCC[C@H](NC(=O)[C@H](CCCCNC(=O)[C@H](C)NC(=O)[C@H](CO)NC(=O)[C@H](CC(C)C)NC(=O)[C@H](CCCNC(=N)N)NC(=O)[C@@H](NC(=O)[C@H](CCCNC(=N)N)NC(=O)[C@@H](NC(=O)[C@H](CCCCN)NC(=O)[C@@H](N)CCCCN)[C@@H](C)CC)C(C)C)NC(=O)[C@H](C)NC(=O)[C@H](CO)NC(=O)[C@H](CC(C)C)NC(=O)[C@H](CCCNC(=N)N)NC(=O)[C@@H](NC(=O)[C@H](CCCNC(=N)N)NC(=O)[C@@H](NC(=O)[C@H](CCCCN)NC(=O)[C@@H](N)CCCCN)[C@@H](C)CC)C(C)C)C(=O)NCCC(=O)O)C(C)C` [M33, KKIRVRLSA] (I: H-KKIRVRLSAKK[βAla]-OH / II: H-KKIRVRLSAK / III: H-KKIRVRLSA / IV: H-KKIRVRLSA; amide I:10-IV:C, I:11-II:C, II:10-III:C; N-terminus assumed), the EC50 ([1]; Raw 264.7 macrophages, LPS from K. pneumoniae ATCC15380, 5 ng/ml, read-out: EC50, block of TNF-α secretion) is reported as 260 nM, the “Decrease of TNF-α production” value ([1]; at a concentration corresponding to MIC (1.5-3 μM), LPS from K. pneumoniae) is reported as “more than 80%” and the MIC (K pneumoniae FIPP-1) is reported as 3 µM (≈ 14 µg/mL). It also gave an MIC (K pneumoniae C8-27) of 1.5 µM (≈ 7.02 µg/mL), an MIC (K pneumoniae 7086042) of 3 µM (≈ 14 µg/mL) and an EC50 ([2]; Raw 264.7 macrophages, LPS from P. aeruginosa serotype 10 ATCC27316, 20 ng/ml, read-out: EC50, block of TNF-α secretion) of 40 nM. For the same compound, the “Decrease of TNF-α production” value ([2]; at a concentration corresponding to MIC (1.5-3 μM), LPS from P. aeruginosa) was “more than 90%”, the Apparent toxicity signs [3] was “did not produce apparent toxicity signs” and the MIC [4] was >24 µM. For the same compound, the MIC [5] was 1.5 µM (≈ 7.02 µg/mL), the MIC [6] was 6 µM (≈ 28.1 µg/mL) and the MIC [7] was 1.5 µM (≈ 7.02 µg/mL). The MIC [8] was 1.5 µM (≈ 7.02 µg/mL), the MIC [9] was 1.5 µM (≈ 7.02 µg/mL) and the MIC [10] was >24 µM. For the same compound, the MIC [11] was >24 µM, the MIC [12] was 1.5 µM (≈ 7.02 µg/mL) and the MIC (S. aureus 3851) was 6 µM (≈ 28.1 µg/mL). It also gave an MIC (E. coli W03BG0025) of 0.7 µM (≈ 3.28 µg/mL), an MIC [13] of 3 µM (≈ 14 µg/mL) and an MIC (P. aeruginosa AV65) of 1.5 µM (≈ 7.02 µg/mL). For the same compound, the MIC (P. aeruginosa PAO-1) was 1.5 µM (≈ 7.02 µg/mL), the MIC [14] was 1.5 µM (≈ 7.02 µg/mL) and the MIC [15] was 1.5 µM (≈ 7.02 µg/mL). It also gave an MIC [16] of 3 µM (≈ 14 µg/mL), an MIC [17] of 0.3 µM (≈ 1.4 µg/mL) and an MIC (P. aeruginosa VR-143/97) of 1.5 µM (≈ 7.02 µg/mL). For the same compound, the MIC (P. aeruginosa EF-OBG6-1) was 0.7 µM (≈ 3.28 µg/mL), the MIC [18] was 1.5 µM (≈ 7.02 µg/mL) and the MIC [19] was 3 µM (≈ 14 µg/mL).
